Assay results as given in patent publication US20240147927A1, “METHODS OF HIGH PRODUCTION OF POLYPHENOLS FROM RED LETTUCES AND USES THEREOF” (SignalChem Plantech Corporation, priority 2021, published 2024).

Assays:
Jurkat cells = format: cell-based
THP1 cells = format: cell-based
MCF7 cells = format: cell-based
[1] = system: IL-6 production in PMA-differentiated THP1 macrophages; assay: IL-6 production in LPS treated PMA-differentiated THP1 macrophages (ELISA); format: cell-based, human; conditions: 1.23, 3.7, 11.11, 33.33 and 100 μg/mL, then LPS 48 h
Protocol: (§1) Methods: […] THP1 monocytes were differentiated to macrophages using phorbol 12-myristate 13-acetate (PMA, Sigma, P1585). The […] The culture supernatant was collected from each well and replaced with 100 μl of fresh 1% FBS medium. […] 50 μl of cultured supernatant was used for measuring TNF-α and IL6 concentration. TNF-α was measured using human TNF-α DuoSet ELISA kit (R&D systems, DY210-05) and IL6 was determined using human IL6 DuoSet ELISA kit (R&D systems, DY206-05) according to the manufacturer's instructions. […] THP1 monocytes were differentiated to macrophages as previously described. […] Untreated cells were used as the control. After incubation, cell cultures were then stimulated with LPS for an additional 48 h (total volume of 200 μL per well). The culture supernatant was collected from each well and replaced with 100 μL of fresh 1% FBS medium. […] 50 μl of cultured supernatant was used for measuring TNF-α and IL6 concentration. TNF-α was measured using human TNF-α DuoSet ELISA kit and IL6 was determined using human IL6 DuoSet ELISA kit according to the manufacturer's instructions.

[2] = system: TNF-α production in PMA-differentiated THP1 macrophages; assay: TNF-α production in LPS treated PMA-differentiated THP1 macrophages (ELISA); format: cell-based, human; conditions: 1.23, 3.7, 11.11, 33.33 and 100 μg/mL, then LPS 48 h
Protocol: as §1

[3] = system: nitric oxide (NO) production in PMA-differentiated THP1 macrophages; assay: Nitric oxide (NO) production in LPS treated PMA-differentiated THP1 macrophages; format: cell-based, human; conditions: pre-treatment 2 h, then LPS 48 h
Protocol: Methods: […] Total nitrite was measured using nitric oxide colorimetric assay kit (BioVision, […]-200) according to the manufacturer's instructions. […] Untreated cells were used as the control. After incubation, cell cultures were then stimulated with LPS for an additional 48 h (total volume of 200 μl per well). The culture supernatant was collected from each well and replaced with 100 μl of fresh 1% FBS medium. […] 42.5 μL of cultured supernatant was used for measuring nitrite concentration. Total nitrite was measured using nitric oxide colorimetric assay kit according to the manufacturer's instructions.

Row | SMILES | Jurkat, TC50 (Jurkat cells) [µg/mL] | cytotoxicity towards THP1 cell-line (THP1 cells) | cytotoxicity towards MCF7 cell-line (MCF7 cells) | effect on secretion of IL-6 [1] | effect on secretion of TNF-α [2] | NO, EC50 [3] [µg/mL]
1 | O=C(/C=C/c1ccc(O)c(O)c1)O[C@H]1[C@H](O)C[C@](O)(C(=O)O)C[C@H]1O [4-CQA, 4-O-caffeoylquinic acid] | 49.9 | did not appear to be individually cytotoxic | did not appear to be individually cytotoxic | minimal effects | minimal effects | 71.9
2 | OC[C@H]1O[C@@H](Oc2cc3c(O)cc(O)cc3[o+]c2-c2ccc(O)c(O)c2)[C@H](O)[C@@H](O)[C@H]1O [Cyanidin 3-galactoside, cyanidin 3-galactoside] | 53.5 | did not appear to be individually cytotoxic | did not appear to be individually cytotoxic | minimal effects | minimal effects | 98.4
3 | O=C(/C=C/c1ccc(O)c(O)c1)O[C@@H]1C[C@](O)(C(=O)O)C[C@@H](O)[C@H]1O [Neochlorogenic acid, 3-O-caffeoylquinic acid] | – | – | – | minimal effects | minimal effects | 80.5
4 | O=C(C=Cc1ccc(O)c(O)c1)O[C@@H](C(=O)O)[C@@H](OC(=O)C=Cc1ccc(O)c(O)c1)C(=O)O [Chicoric acid, (2R,3R)-O-dicaffeoyltartaric acid] | – | – | – | minimal effects | minimal effects | 25.3
